Laboratory results from the supplement of paper PMC10307832.

Legend:
Test in all cases: relative viability (nuclei count vs DMSO), 5 days (fraction); higher = more cells survive
Apatinib + Pemetrexed = compound: N#CC1(c2ccc(NC(=O)c3cccnc3NCc3ccncc3)cc2)CCCC1 [Apatinib] + Nc1nc2[nH]cc(CCc3ccc(C(=O)N[C@@H](CCC(=O)O)C(=O)O)cc3)c2c(=O)[nH]1 [Pemetrexed] (partner 0.2 µM)
Procedure, shortened: (§1)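 The day after seeding in 1536-well plates, lung cancer cell lines were treated by pin tool with a single drug, or with a fixed anchor-drug dose together with five library-drug doses (not always all listed) in √10 steps. After 5 days, a combined fix-and-stain solution (final 0.05% Triton X-100, 1% formaldehyde, 1 ug/ml Hoechst) was added. Nuclei counted on 4× images gave relative viability as treated counts over vehicle counts, reported as the median of duplicate plates.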

Metformin + OSI-027 = compound: CN(C)C(=N)NC(=N)N [Metformin] + COc1cccc2cc(-c3nc([C@H]4CC[C@H](C(=O)O)CC4)n4ncnc(N)c34)[nH]c12 [OSI-027] (partner 0.5 µM)
Procedure, shortened: as §1

Apatinib = compound: N#CC1(c2ccc(NC(=O)c3cccnc3NCc3ccncc3)cc2)CCCC1 [Apatinib]
Procedure, shortened: (§2)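 Lung cancer cell lines in 1536-well plates were exposed by pinning to five library-drug doses (not always all listed) √10 apart, following an overnight hold at 37 °C. MetaXpress counted Hoechst-stained nuclei from 4× images taken after 5 days without medium change. Viability is the median ratio of treated-well to vehicle-well nuclei across plates. Plates required control CV below 25% and at least one doubling.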

Metformin = compound: CN(C)C(=N)NC(=N)N [Metformin]
Procedure, shortened: as §2

| Cell Line | relative viability (Apatinib + Pemetrexed; first compound 0.08 µM) | relative viability (Apatinib + Pemetrexed; first compound 0.253 µM) | relative viability (Apatinib + Pemetrexed; first compound 0.8 µM) | relative viability (Apatinib + Pemetrexed; first compound 2.53 µM) | relative viability (Apatinib + Pemetrexed; first compound 8 µM) | relative viability (Metformin + OSI-027; first compound 10 µM) | relative viability (Metformin + OSI-027; first compound 31.62 µM) | relative viability (Metformin + OSI-027; first compound 100 µM) | relative viability (Metformin + OSI-027; first compound 316.23 µM) | relative viability (Metformin + OSI-027; first compound 1000 µM) | relative viability (Apatinib; 0.08 µM) | relative viability (Apatinib; 0.253 µM) | relative viability (Apatinib; 0.8 µM) | relative viability (Apatinib; 2.53 µM) | relative viability (Apatinib; 8 µM) | relative viability (Metformin; 10 µM) | relative viability (Metformin; 31.62 µM) | relative viability (Metformin; 100 µM) | relative viability (Metformin; 316.23 µM) | relative viability (Metformin; 1000 µM) |
| --- | --- | --- | --- | --- | --- | --- | --- | --- | --- | --- | --- | --- | --- | --- | --- | --- | --- | --- | --- | --- |
| COR-L23 | 0.194 | 0.191 | 0.192 | 0.199 | 0.177 | 0.644 | 0.68 | 0.571 | 0.605 | 0.782 | 1.04 | 0.942 | 1.05 | 0.914 | 0.865 | 0.979 | 1.06 | 0.974 | 0.977 | 1 |
| NCI-H1915 | 0.503 | 0.493 | 0.512 | 0.408 | 0.392 | – | 0.666 | 0.651 | 0.56 | 0.665 | 1.06 | 0.959 | 0.963 | 0.879 | 0.821 | – | 0.998 | 1.02 | 0.968 | 1.01 |
| NCI-H2228 | 0.324 | 0.312 | 0.356 | 0.208 | 0.192 | 0.81 | 0.551 | 0.456 | 0.513 | 0.792 | 1.13 | 1.08 | 0.993 | 0.867 | 0.846 | 0.913 | 1.08 | 0.803 | 0.907 | 1.22 |
| NCI-H1563 | 0.622 | 0.765 | 0.795 | 0.708 | 0.681 | 0.742 | 0.797 | 0.778 | 0.722 | 0.866 | 0.961 | 1.08 | 0.98 | 0.931 | 0.867 | 0.954 | 1.11 | 1.16 | 1.07 | 1.14 |
| NCI-H23 | 0.747 | 0.855 | 0.677 | 0.57 | 0.439 | 0.594 | 0.665 | 0.559 | 0.523 | 0.664 | 1.08 | 0.977 | 0.912 | 0.937 | 0.88 | 0.919 | 1.17 | 0.969 | 0.997 | 1.13 |
| NCI-H596 | 0.541 | 0.539 | 0.494 | 0.405 | 0.442 | 1.04 | 0.84 | 0.85 | 0.636 | 0.988 | 0.939 | 1.03 | 0.94 | 0.911 | 0.882 | 1.17 | 1.14 | 1.02 | 1.06 | 1.09 |
| NCI-H1734 | 0.452 | 0.456 | 0.429 | 0.403 | 0.255 | 0.653 | 0.581 | 0.537 | 0.544 | 0.618 | 1.18 | 0.987 | 0.991 | 0.909 | 0.845 | 1.01 | 1.03 | 1.04 | 1.01 | 1.02 |
| NCI-H2405 | 1.15 | 1.1 | 1.08 | 0.898 | 0.867 | 0.567 | 0.573 | 0.608 | 0.606 | 0.559 | 0.954 | 1.04 | 1.07 | 0.909 | 0.955 | 0.756 | 1.04 | 0.91 | 0.971 | 0.931 |
| NCI-H2009 | 1.07 | 0.996 | 0.902 | 0.879 | 0.661 | 0.754 | 0.821 | 0.752 | 0.692 | 0.601 | 1.06 | 0.979 | 0.968 | 0.762 | 0.618 | 0.889 | 1.1 | 1.04 | 1.02 | 1.03 |
| NCI-H1666 | 0.874 | 0.858 | 0.842 | 0.802 | 0.672 | 0.97 | 0.974 | 1.05 | 0.99 | 0.939 | 1.01 | 0.958 | 0.969 | 0.997 | 0.986 | 0.938 | 1.11 | 0.971 | 1.07 | 1.09 |
| UMC-11 | 0.783 | 0.771 | 0.716 | 0.663 | 0.433 | 0.594 | 0.549 | 0.539 | 0.426 | 0.505 | 1.06 | 0.866 | 0.942 | 0.899 | 0.885 | 0.961 | 1.02 | 1.06 | 0.96 | 0.992 |
| NCI-H1755 | 0.423 | 0.441 | 0.402 | 0.329 | 0.364 | 0.614 | 0.729 | 0.701 | 0.636 | 0.579 | 1.02 | 1 | 1 | 1.06 | 0.951 | 0.807 | 0.891 | 0.864 | 0.853 | 0.897 |
| 201T | 0.325 | 0.37 | 0.297 | 0.334 | 0.316 | – | 0.955 | 0.875 | 0.881 | 0.517 | 0.983 | 0.961 | 0.982 | 0.871 | 0.894 | – | 1.08 | 1.06 | 0.934 | 1.01 |
| NCI-H522 | 0.986 | 0.975 | 0.993 | 0.66 | 0.748 | 0.796 | 0.752 | 0.708 | 0.744 | 0.667 | 1 | 1.04 | 1.1 | 0.916 | 0.928 | 1.24 | 1.09 | 1.05 | 0.942 | 1.11 |
| NCI-H838 | 0.259 | 0.291 | 0.228 | 0.221 | 0.207 | 0.544 | 0.624 | 0.563 | 0.508 | 0.515 | 1.08 | 1.06 | 0.97 | 0.936 | 0.941 | 1.05 | 1.07 | 1.01 | 0.987 | 1.04 |
| HOP-62 | 0.333 | 0.31 | 0.289 | 0.244 | 0.16 | 0.827 | 0.903 | 0.992 | 0.678 | 0.861 | 0.964 | 0.924 | 0.985 | 0.859 | 0.922 | 0.856 | 1.02 | 1.02 | 0.917 | 1.03 |
